Assay results: ChEMBL document CHEMBL1201862, “PubChem BioAssay data set” (2004)
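Exposure lasted 48 hours, with cells grown in 96-well plates and compounds tested at five concentrations. At the GI50, growth is halved.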 Active and inactive are the calls of the source. No stated cut-off is given here; in the data, active = GI50 up to about 1.1 µM and inactive = higher.

Columns and labels:
Assay in all cases: growth of human tumour cells (NCI), 48 h
[1] = test system: MCF7
[2] = test system: NCI-H226
[3] = test system: NCI/ADR-RES
[4] = test system: LOX IMVI
[5] = test system: OVCAR-8
[6] = test system: PC-3
[7] = test system: K562
[8] = test system: HL-60
[9] = test system: 786-0
[10] = test system: IGROV-1
[11] = test system: RXF 393
[12] = test system: SF-295
[13] = test system: MDA-MB-435
[14] = test system: SK-MEL-5
[15] = test system: HCT-116
[16] = test system: CCRF-CEM
[17] = test system: A549
[18] = test system: RPMI-8226
[19] = test system: SK-OV-3
[20] = test system: HT-29

Measured: GI50

C=CCNC1=C2C[C@@H](C)C[C@@H](OC)C(OC(=O)CCCN(C)C)[C@H](C)/C=C(\C)[C@@H](OC(N)=O)[C@H](OC)/C=C\C=C(/C)C(=O)NC(=CC1=O)C2=O (stereo not given in full)
inactive: [1] 2.02 µM | [2] 14.6 µM | [3] 21.8 µM | [4] 10.1 µM | [5] 4.1 µM | [6] 4.98 µM | [7] 4.06 µM | [8] 5.51 µM | [9] 12.4 µM | [10] 8.95 µM | [11] 3.98 µM | [12] 7.57 µM | [13] 10.6 µM | [14] 2.51 µM | [15] 7.13 µM | [16] 8.95 µM | [17] 3.85 µM | [18] 6.49 µM | [19] 2.37 µM | [20] 2.7 µM
